Source: article PMC7000209, “Novel small molecule modulators of quorum sensing in avian pathogenic Escherichia coli (APEC)” (Virulence, 2018)

Key:
[1] = tested on: AI-2 activity of O15; assay: AI-2 bioluminescence indicator assay, APEC O15; format: cell-based, avian pathogenic E. coli (APEC) O15; details: Escherichia coli, read-out: % Inhibtion of AI-2 activity, serotype O15, bioluminescence vs DMSO treated control
Description: (§1) Overnight culture of APEC O78 prepared in LB broth was adjusted to an optical density (OD600) of 0.05 (7 × 10^7 CFU/mL) in fresh LB broth. One hundred micro-liters of the culture was transferred to a 96-well plate and 1µL (100 μM final concentration) of the compound was added to each well using a pin tool. Chloramphenicol (40 μg/mL) or kanamycin (30 μg/mL) and 1μL of 100% DMSO were included as controls in each plate. Plates were incubated at 37 °C for 10 h with shaking in a Sunrise^TM Tecan plate reader (Tecan Group Ltd. San Jose, CA, USA) and the growth was kinetically monitored every 30 min by measuring the OD at 600 nm.
(§2) The AI-2 bioluminescence assay was performed as described previously. Briefly, APEC O78 cultures grown in the presence of SMs (see above) were centrifuged at 5000 × g for 10 min, and cell-free culture supernatants were prepared by using a 0.22 µm filter 96 well plate (Millipore). The bioluminescence reporter V. harveyi BB170 (AI-1^+ and AI-2^-) was grown overnight in AB medium at 30 °C aerobically with shaking. The overnight culture was diluted to 1:5000 in fresh AB medium and incubated at 30 °C for 3 h. Following incubation, 180 μL of the V. harveyi BB170 culture was distributed into each well of a 96-well plate and mixed with 20 µL of the cell free culture supernatant, the plate was then incubated at 30 °C for 2.5 h in the dark and the bioluminescence was measured using in vivo imaging system (IVIS Lumina Series III, PerkinElmer, USA). […] Cell-free culture supernatants collected from overnight cultures of V. harveyi BB120 (AI-1^+andAI-2^+) and E. coli DH5α (a strain lacks AI-2) were used as controls. Bioluminescence of SMs treated culture supernatants were compared to DMSO treated control. The Z-score was calculated to evaluate the quality of the bioluminescence screening. Four independent experiments were conducted for the 69 compounds that inhibited ≥ 75% of the AI-2 mediated bioluminescence and the average inhibition percentage was calculated.
(§3) The selected compounds were also tested for inhibition of AI-2 production in other APEC serotypes such as O1, O2, O8, O15, O18, O35, O109, and O115 that are commonly implicated in colibacillosis using the same procedure described above.

[2] = tested on: APEC O2 in HD-11 cells; assay: Intracellular survival assay, APEC O2 in HD-11 cells; format: cell-based, avian pathogenic E. coli (APEC) O2; details: MOI 100, 100 µM, 6 h; for reduction of intracellular survival of APEC O2: vs DMSO treated control
Description: The effect of the selected AI-2 inhibitors on the survival of APEC in macrophage cells was tested as described before. Briefly, HD-11 cells was grown as described above and infected with 1 × 10^7 CFU (MOI = 100) of mid-log phase APEC strains (O78, O1 and O2) at 37 °C for 1 h. Cells were washed with PBS and treated with gentamicin (150 μg/mL) for 1 h to kill the extracellular bacteria. The cells were then washed and incubated with 100 µM of each compound in media containing 10 μg/mL of gentamicin at 37 °C for 6 h. Following treatment, cells were washed, lysed with 0.1% Triton X-100 for 5 min, ten-fold serially diluted in PBS and plated on LB agar plates to determine CFUs. Cells treated with chloramphenicol (40 μg/mL) and 1 μL of 100% DMSO were used as controls. The experiment was conducted two times with four replicates in each experiment. Intracellular survival was expressed as the log change of APEC CFUs in the AI-2 inhibitors treated cells.

[3] = tested on: AI-2 activity of O18; assay: AI-2 bioluminescence indicator assay, APEC O18; format: cell-based, avian pathogenic E. coli (APEC) O18; details: Escherichia coli, read-out: % Inhibtion of AI-2 activity, serotype O18, bioluminescence vs DMSO treated control
Description: as §1, §2, §3

[4] = tested on: AI-2 activity of APEC O1; assay: AI-2 bioluminescence indicator assay, APEC O1; format: cell-based, avian pathogenic E. coli (APEC) O1; details: Escherichia coli, read-out: % Inhibtion of AI-2 activity, serotype O1, bioluminescence vs DMSO treated control
Description: as §1, §2, §3

[5] = tested on: AI-2 activity of O8; assay: AI-2 bioluminescence indicator assay, APEC O8; format: cell-based, avian pathogenic E. coli (APEC) O8; details: Escherichia coli, read-out: % Inhibtion of AI-2 activity, serotype O8, bioluminescence vs DMSO treated control
Description: as §1, §2, §3

[6] = tested on: AI-2 activity of O35; assay: AI-2 bioluminescence indicator assay, APEC O35; format: cell-based, avian pathogenic E. coli (APEC) O35; details: Escherichia coli, read-out: % Inhibtion of AI-2 activity, serotype O35, bioluminescence vs DMSO treated control
Description: as §1, §2, §3

[7] = tested on: QS-regulated and virulence factors genes of APEC O78; assay: qRT-PCR of QS-regulated and virulence factor genes; format: cell-based, avian pathogenic E. coli (APEC) O78; details: APEC O78, 100 µM, 10 h, ∆∆Ct vs DMSO
Description: The effect of the selected AI-2 inhibitors on the expression of QS-regulated and virulence factors genes of APEC was determined using qRT-PCR. APEC O78 was grown in the presence of 100 µM of each compound in a 96-well plate at 37 °C for 10 h. APEC O78 culture treated with 1µL of 100% DMSO was used as control. Total RNA was extracted from duplicate wells for each compound (200 µL) using a miRNeasy Mini Kit (Qiagen). RNA quality and quantity was determined by nanodrop 2000 C spectrophotometer (Thermo scientific). Traces of DNA were removed using Genomic DNA removal mix (Qiagen). Approximately, 5 μg of purified RNA was used to synthesize cDNA using the Qiagen RT^2 First Strand Kit (Qiagen). The qRT-PCR was performed using SensiMix^TM SYBR® Hi-ROX qPCR Master Mix (Bioline) according to manufacturer instructions in a realplex^2 mastercycler (Eppendorf) with 55 °C annealing temperature. Gene-specific primers were designed using PrimerQuest Tool and obtained from integrated DNA technologies (IDT). The data were normalized to the house-keeping gene, glyceraldehyde-3-phosphate dehydrogenase (GAPDH). The relative fold change was calculated using the ∆∆Ct method. Three independent experiments were conducted.

[8] = tested on: AI-2 activity of O109; assay: AI-2 bioluminescence indicator assay, APEC O109; format: cell-based, avian pathogenic E. coli (APEC) O109; details: Escherichia coli, read-out: % Inhibtion of AI-2 activity, serotype O109, bioluminescence vs DMSO treated control
Description: as §1, §2, §3

## Cc1ccc(CN2CCN(CCCc3ccccc3)CC2)cc1 [C5, 1-(4-methylbenzyl)-4-(3-phenylpropyl)piperazine]
[1]
  inhibition at 100 µM: 45%
[2]
  clearance of intracellular APEC O2: 100%
  reduction of intracellular survival of APEC O2: ~ 3.3 logs
[3]
  inhibition at 100 µM: 61%
[4]
  inhibition at 100 µM: 46%
[5]
  inhibition at 100 µM: 18%
[6]
  inhibition at 100 µM: 68%
[7]
  expression of fliP: down-regulated
  expression of fpr: down-regulated
  expression of hha: down-regulated
  expression of wzb: down-regulated
[8]
  inhibition at 100 µM: 69%

## CS/C(N)=N/N=C/c1cc(C)ccc1O [C4, methyl N'-(2-hydroxy-5-methylbenzylidene)h ydrazonothiocarbamate]
[1]
  inhibition at 100 µM: 46%
[2]
  reduction of intracellular survival of APEC O2: up to 0.8 logs
[3]
  inhibition at 100 µM: 54%
[4]
  inhibition at 100 µM: 63%
[5]
  inhibition at 100 µM: 0%
[6]
  inhibition at 100 µM: 60%
[7]
  expression of cheW: down-regulated
  expression of csrA: down-regulated
  expression of iucD: down-regulated
  expression of luxS: did not
  expression of pfs: up-regulated
[8]
  inhibition at 100 µM: 67%

## O=C(CCN1CCN(c2ccccc2F)CC1)Nc1ccc(Br)cc1 [C7, N-(4-bromophenyl)-3-[4-(2-fluorophenyl)-1-piperazinyl]propanamide]
[1]
  inhibition at 100 µM: 36%
[2]
  reduction of intracellular survival of APEC O2: up to 0.8 logs
[3]
  inhibition at 100 µM: 48%
[4]
  inhibition at 100 µM: 47%
[5]
  inhibition at 100 µM: 2%
[6]
  inhibition at 100 µM: 62%
[7]
  expression of nlpC: up-regulated
[8]
  inhibition at 100 µM: 67%

## NC(=O)c1ccccc1Nc1cccc(C(F)(F)F)c1 [C3, 2-{[3-(trifluoromethyl)phenyl]amino}benzamide]
[1]
  inhibition at 100 µM: 0%
[3]
  inhibition at 100 µM: 8%
[4]
  inhibition at 100 µM: 65%
[5]
  inhibition at 100 µM: 39%
[6]
  inhibition at 100 µM: 37%
[7]
  expression of fpr: down-regulated
[8]
  inhibition at 100 µM: 0%

## Cc1ccccc1N1CCN(C2CCCN(C(=O)c3ccc(F)c(Cl)c3)C2)CC1 (stereo not drawn) [C2, 1-[1-(3-chloro-4-fluorobenzoyl)-3-piperidinyl]-4-(2-methylphenyl)piperazine]
[1]
  inhibition at 100 µM: 27%
[3]
  inhibition at 100 µM: 43%
[4]
  inhibition at 100 µM: 64%
[5]
  inhibition at 100 µM: 20%
[6]
  inhibition at 100 µM: 55%
[7]
  expression of hha: down-regulated
  expression of ugpC: down-regulated
[8]
  inhibition at 100 µM: 57%

## OCCC1CN(C2CCN(c3ccccc3)CC2)CCN1CCCc1ccccc1 (stereo not drawn) [C10, 2-[4-(1-phenyl-4-piperidinyl)-1-(3-phenylpropyl)-2-piperazinyl]ethanol]
[1]
  inhibition at 100 µM: 22%
[2]
  clearance of intracellular APEC O2: 100%
  reduction of intracellular survival of APEC O2: ~ 3.3 logs
[3]
  inhibition at 100 µM: 35%
[4]
  inhibition at 100 µM: 64%
[5]
  inhibition at 100 µM: 0%
[6]
  inhibition at 100 µM: 47%
[7]
  expression of fliP: down-regulated
  expression of frwC: down-regulated
  expression of iss: down-regulated
[8]
  inhibition at 100 µM: 57%

## CCc1ccccc1Nc1nc(-c2c(C)nc3ccccn23)cs1 [C8, N-(2-ethylphenyl)-4-(2-methylimidazo[1,2-a]pyridin-3-yl)-1,3-thiazol-2-amine]
[1]
  inhibition at 100 µM: 25%
[2]
  reduction of intracellular survival of APEC O2: up to 0.8 logs
[3]
  inhibition at 100 µM: 54%
[4]
  inhibition at 100 µM: 41%
[5]
  inhibition at 100 µM: 18%
[6]
  inhibition at 100 µM: 57%
[7]
  expression of fliP: down-regulated
  expression of ugpC: down-regulated
[8]
  inhibition at 100 µM: ≥ 75%

## Fc1ccc(CN2CCCN(Cc3nc(-c4ccc(C(F)(F)F)cc4)no3)CC2)cc1 [C9, 1-(4-fluorobenzyl)-4-({3-[4-(trifluoromethyl)phenyl]-1,2,4-oxadiazol-5-yl}methyl)-1,4-diazepane]
[1]
  inhibition at 100 µM: 0%
[2]
  clearance of intracellular APEC O2: 100%
  reduction of intracellular survival of APEC O2: ~ 3.3 logs
[3]
  inhibition at 100 µM: 14%
[4]
  inhibition at 100 µM: 19%
[5]
  inhibition at 100 µM: 20%
[6]
  inhibition at 100 µM: 36%
[7]
  expression of bolA: down-regulated
  expression of cheW: down-regulated
  expression of csrA: down-regulated
  expression of iss: up-regulated
  expression of murD: down-regulated
  expression of nlpC: up-regulated
  expression of ugpC: down-regulated
[8]
  inhibition at 100 µM: 66%

## O=[N+]([O-])c1cccc(S(=O)(=O)Nc2ccc(Br)cc2)c1 [C6, N-(4-bromophenyl)-3-nit robenzenesulfonamide]
[2]
  clearance of intracellular APEC O2: 100%
  reduction of intracellular survival of APEC O2: ~ 3.3 logs
[3]
  inhibition at 100 µM: ≥ 75%
[4]
  inhibition at 100 µM: ≥ 75%
[5]
  inhibition at 100 µM: ≥ 75%
[7]
  expression of cheW: down-regulated
  expression of csrA: down-regulated
  expression of fliP: down-regulated
  expression of fpr: down-regulated
  expression of hha: down-regulated
  expression of murD: down-regulated
[8]
  inhibition at 100 µM: 60%

## COCCN1CCC(CN(Cc2ccncc2)Cc2ccccc2Cl)CC1 [C1, (2-chlorobenzyl){[1-(2-methoxyethyl)-4-piperidinyl]methyl}(4-pyridinylmethyl)amine]
[1]
  inhibition at 100 µM: 13%
[3]
  inhibition at 100 µM: 37%
[4]
  inhibition at 100 µM: ≥ 75%
[5]
  inhibition at 100 µM: 20%
[6]
  inhibition at 100 µM: 48%
[7]
  expression of hha: down-regulated
  expression of iss: down-regulated
  expression of murD: down-regulated
  expression of thiH: down-regulated
  expression of ugpC: down-regulated
[8]
  inhibition at 100 µM: 65%
